# Source: US20210023113A1, “CONJUGATE OF CYTOTOXIC DRUG AND PRODRUG FORM OF SAID CONJUGATE” (priority 2018, published 2021)
# Assays:
# [1] = biological target: T1, β-glucuronidase from Escherichia coli (Escherichia coli, UniProt P05804); assay: Kinetics of β-glucuronidase-induced release of a cytotoxic drug (general procedure, plasma/phosphate buffer); format: biochemical; conditions: after 40 minutes of incubation with β-glucuronidase, 50/50 human plasma and potassium phosphate buffer pH 7.0, 25° C.
# T1 sequence (P05804 whole entry): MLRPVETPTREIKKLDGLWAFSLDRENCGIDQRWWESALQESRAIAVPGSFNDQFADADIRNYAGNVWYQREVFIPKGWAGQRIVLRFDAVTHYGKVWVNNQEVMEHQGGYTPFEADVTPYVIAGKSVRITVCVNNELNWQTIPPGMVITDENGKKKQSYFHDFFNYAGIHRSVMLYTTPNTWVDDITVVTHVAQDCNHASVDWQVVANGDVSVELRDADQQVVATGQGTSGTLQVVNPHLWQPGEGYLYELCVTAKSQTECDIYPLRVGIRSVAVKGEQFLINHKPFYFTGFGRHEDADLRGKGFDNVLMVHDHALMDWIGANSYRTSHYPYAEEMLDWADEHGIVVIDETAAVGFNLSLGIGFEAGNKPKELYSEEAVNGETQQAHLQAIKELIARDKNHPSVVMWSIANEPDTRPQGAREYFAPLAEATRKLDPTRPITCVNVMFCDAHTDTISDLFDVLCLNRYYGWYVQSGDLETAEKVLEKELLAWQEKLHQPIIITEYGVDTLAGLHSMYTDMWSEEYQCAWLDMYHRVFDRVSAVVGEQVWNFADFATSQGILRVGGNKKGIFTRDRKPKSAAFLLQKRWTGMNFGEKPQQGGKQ
# Method: General Procedure for the Measurement of the Kinetics of β-glucuronidase-Induced Release of a Cytotoxic Drug • Sample solution of R isomers was prepared by adding 5 μL of compounds R6, R7 or R8 (10 mM in DMSO) to 500 μL of a 50/50 mixture of human plasma and potassium phosphate buffer (0.1M, pH 7.0) and incubating at 37° C. for 20 min. • Sample solution of S isomers was prepared by adding 5 μL of compounds S6, S7 or S8 (10 mM in DMSO) to 500 μL of a 50/50 mixture of human plasma and potassium phosphate buffer (0.1M, pH 7.0) and incubating at 37° C. for 20 min. • Quenching solution (Q) was prepared by adding 50 μL of 1 M aqueous HCl to 1.5 mL of acetonitrile. • β-glucuronidase solution (Glu) was prepared by adding 20 μL of aqueous glycerol solution of β-glucuronidase from Escherichia coli (6.5 mg/mL) to 180 μL of H2O. • Reference solution (Ref) was prepared by adding 5 μL of a corresponding free cytotoxic drug (10 mM in DMSO) to 500 μL of a 50/50 mixture of human plasma and potassium phosphate buffer (0.1M, pH 7.0) and incubating at 37° C. for 20 min.
# To each sample and reference solution was added 10 uL of Glu. The resulting mixtures were incubated at 25° C. 45 μL aliquots of each solution were quenched with 155 μL of Q at the precise time points indicated on the graphs (FIGS. 3-5). Quenched aliquots were centrifuged at 15000 g for 5 min and the supernatant was analyzed by LCMS (Method 3) with Selected ion recording set to [M+H]^+ where M corresponds to molecular mass of the free cytotoxic agent.
# The amount of released cytotoxic agent at each time point was calculated as (sample peak area)/(reference peak area)×100%.
# [2] = biological target: T1, β-glucuronidase from Escherichia coli; assay: Kinetics of β-glucuronidase-induced release of MMAE in human plasma; format: biochemical; conditions: after 7 minutes of incubation with β-glucuronidase, 37° C.
# Method: Measurement of the Kinetics of β-glucuronidase-Induced Release of MMAE • Sample solution of R isomer was prepared by adding 10 μL of R5 (10 mM in DMSO) to 990 μL of human plasma and incubating at 37° C. for 20 min. • Sample solution of S isomer was prepared by adding 10 μL of S5 (10 mM in DMSO) to 990 μL of human plasma and incubating at 37° C. for 20 min. • Quenching solution (Q) was prepared by adding 50 μL of 1 M aqueous HCl to 1.5 mL of acetonitrile. • β-glucuronidase solution (Glu) was prepared by adding 20 μL of aqueous glycerol solution of β-glucuronidase from Escherichia coli (6.5 mg/mL) to 180 μL of H2O. • Reference solution (Ref) was prepared by adding 10 μL of MMAE (10 mM in DMSO) to 990 μL of human plasma and incubating at 37° C. for 20 min.
# To 1 mL of each isomer and reference solution was added 40.9 uL of Glu. The resulting mixtures were incubated at 37° C. 45 μL aliquots of each solution were quenched with 155 μL of Q at the following time points: 1 min, 2 min, 3 min, 4 min, 5 min, 6 min and 7 min. Quenched aliquots were centrifuged at 15000 g for 5 min and the supernatant was analyzed by LCMS (Method 3) with Selected ion recording set to 719 Da (corresponding to [MMAE+H]^+). The amount of released MMAE at each time point was calculated as (sample peak area)/(reference peak area)×100% (FIG. 2).
# [3] = Stability of R5 and S5 in aqueous buffer (PBS); format: physicochemical; conditions: phosphate buffered saline pH 6.0, any time point
# Method: Measurement of the Stability of R5 and S5 in Aqueous Buffer at pH 7.4 • Sample solution R5-PBS was prepared by adding 20 μL of R5 (10 mM in DMSO) to 180 μL of phosphate buffered saline (pH 7.4). • Sample solution S5-PBS was prepared by adding 20 μL of S5 (10 mM in DMSO) to 180 μL of phosphate buffered saline (pH 7.4). • Samples were incubated at 25° C. and analyzed by LCMS (Method 3) with Selected ion recording set to 924 Da (corresponding to [R5+2H]^2+/2 and [S5+2H]^2+/2) and to 933 Da (the main impurity being formed corresponding to hydrolyzed products [R5+H2O+2H]^2+/2 and [S5+H2O+2H]^2+/2). Samples were injected at the following time points: 0 min, 99 min, 195 min, 291 min, 387 min, 543 min, 699 min, 855 min, 980 min. Peak areas of the samples injected at 0 min were considered as reference peak areas. • % Peak Area was calculated as (924 Da peak area)/((924 Da peak area)+(933 Da peak area))×100%.
# The same experiment was carried out in phosphate buffered saline at pH 6.0.
# serum albumin = biological target: T2, serum albumin (Homo sapiens, UniProt P02768); assay: Plasma-binding kinetics of R5 and S5; format: in vitro ADME; conditions: 37° C.
# T2 construct: adding 10 μL of R5 (10 mM in DMSO) to 990 μL of human plasma and incubating at 37° C; from tissue; host or cells: human plasma
# T2 sequence (P02768 25-609): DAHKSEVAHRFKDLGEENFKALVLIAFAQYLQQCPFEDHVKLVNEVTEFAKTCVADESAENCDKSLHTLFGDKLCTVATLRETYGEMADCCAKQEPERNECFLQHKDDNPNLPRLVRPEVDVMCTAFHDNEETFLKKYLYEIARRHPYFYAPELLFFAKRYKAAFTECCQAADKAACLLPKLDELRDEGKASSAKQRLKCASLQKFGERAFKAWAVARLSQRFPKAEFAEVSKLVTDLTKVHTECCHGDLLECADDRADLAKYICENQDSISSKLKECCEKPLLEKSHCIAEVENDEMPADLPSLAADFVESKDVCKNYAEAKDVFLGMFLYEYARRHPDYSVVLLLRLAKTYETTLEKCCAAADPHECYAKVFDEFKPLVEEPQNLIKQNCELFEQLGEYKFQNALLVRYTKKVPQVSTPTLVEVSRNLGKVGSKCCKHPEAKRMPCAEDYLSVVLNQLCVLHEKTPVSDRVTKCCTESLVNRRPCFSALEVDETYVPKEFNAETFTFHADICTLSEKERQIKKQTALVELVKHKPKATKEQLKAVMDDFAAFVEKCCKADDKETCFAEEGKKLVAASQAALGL
# Method: Plasma-Binding Kinetics of R5 and S5 • Quenching solution (Q) was prepared by adding 50 μL of 1 M aqueous HCl to 1.5 mL of acetonitrile. • Sample solution R-Alb was prepared by adding 10 μL of R5 (10 mM in DMSO) to 990 μL of human plasma and incubating at 37° C. • Sample solution S-Alb was prepared by adding 10 μL of S5 (10 mM in DMSO) to 990 μL of human plasma and incubating at 37° C. • 45 μL aliquots of each sample solution were added to 155 μL of the quenching solution at the following time-points: 0 min, 1 min, 2 min, 3 min, 4 min, 5 min, 6 min, 7 min. • Quenched aliquots were centrifuged at 15000 g for 5 min and the supernatant was analyzed by LCMS (Method 3) with Selected ion recording set to 924 Da (corresponding to [R5+2H]^2+/2 and [S5+2H]^2+/2). Peak areas of the aliquots quenched at 0 min were considered as reference peak areas. • The % remaining free drug at each time point was calculated as (sample peak area)/(reference peak area)×100%.
smiles,measurement,setting,value
CCc1c2c(nc3ccc(OCc4ccc(NC(=O)O[C@@H](Cc5cn(CCOCCOCCOCCOCCOCCOCCOCCOCCOCCOCCNC(=O)CCCCCN6C(=O)C=CC6=O)nn5)c5ccc(O[C@H]6O[C@@H](C(=O)O)[C@H](O)[C@@H](O)[C@@H]6O)c([N+](=O)[O-])c5)cc4)cc13)-c1cc3c(c(=O)n1C2)COC(=O)[C@]3(O)CC [S7],SN-38 released from plasma-bound compound,[1],18%
CC[C@H](C)[C@@H]([C@@H](CC(=O)N1CCC[C@H]1[C@H](OC)[C@@H](C)C(=O)N[C@@H](Cc1ccccc1)C(=O)O)OC)N(C)C(=O)[C@@H](NC(=O)[C@H](C(C)C)N(C)C(=O)O[C@@H](Cc1cn(CCOCCOCCOCCOCCOCCOCCOCCOCCOCCOCCNC(=O)CCCCCN2C(=O)C=CC2=O)nn1)c1ccc(O[C@@H]2O[C@H](C(=O)O)[C@@H](O)[C@H](O)[C@H]2O)c([N+](=O)[O-])c1)C(C)C [S6],MMAF released from plasma-bound compound,[1],57%
CC[C@H](C)[C@@H]([C@@H](CC(=O)N1CCC[C@H]1[C@H](OC)[C@@H](C)C(=O)N[C@H](C)[C@@H](O)c1ccccc1)OC)N(C)C(=O)[C@@H](NC(=O)[C@H](C(C)C)N(C)C(=O)O[C@@H](Cc1cn(CCOCCOCCOCCOCCOCCOCCOCCOCCOCCOCCNC(=O)CCCCCN2C(=O)C=CC2=O)nn1)c1ccc(O[C@@H]2O[C@H](C(=O)O)[C@@H](O)[C@H](O)[C@H]2O)c([N+](=O)[O-])c1)C(C)C [S5],MMAE released from plasma-bound compound,[2],12%
same,degradation of compound,[3],No degradation
same,compound bound to serum albumin,serum albumin; after 2 minutes of incubation,about 90%
same,conversion (binding to serum albumin),serum albumin; after 4 minutes,total conversion
COc1cccc2c1C(=O)c1c(O)c3c(c(O)c1C2=O)C[C@@](O)(C(=O)CO)C[C@@H]3O[C@H]1C[C@H](NC(=O)O[C@@H](Cc2cn(CCOCCOCCOCCOCCOCCOCCOCCOCCOCCOCCNC(=O)CCCCCN3C(=O)C=CC3=O)nn2)c2ccc(O[C@H]3O[C@@H](C(=O)O)[C@H](O)[C@@H](O)[C@@H]3O)c([N+](=O)[O-])c2)[C@H](O)[C@H](C)O1 [S8],Doxorubicin released from plasma-bound compound,[1],80%
